From patent US20070116831A1, “Dental Composition with High-Potency Sweetener” (THE COCA-COLA COMPANY, priority 2005, published 2007) come the findings set out here.

The series can be described thus: Rate of dissolution in H2O at 25° C. of rebaudioside A polymorph and amorphous forms. The format is physicochemical. As to conditions: within 60 minutes. The text has this:
The purification of rebaudioside A by crystallization as described above results in the formation of at least three different polymorphs: Form 1: a rebaudioside A hydrate; Form 2: an anhydrous rebaudioside A; and Form 3: a rebaudioside A solvate. In addition to the at least three polymorph forms of rebaudioside A, the purification of rebaudioside A may result in the formation of an amorphous form of rebaudioside A, Form 4. The aqueous organic solution and temperature of the purification process influence the resulting polymorph and amorphous forms in the substantially pure rebaudioside A composition. FIGS. 1-5 are exemplary powder x-ray diffraction (XRPD) scans of the polymorph and amorphous forms Form 1 (hydrate), Form 2 (anhydrate), Form 3A (methanol solvate), Form 3B (ethanol solvate), and Form 4 (amorphous), respectively.

In the case of rebaudioside A [Form 1], the “Rate of dissolution in H2O at 25° C.” value was “Very low (<0.2%/ %/60 minutes”.
